# Results reported in US20170247335A1, “FLUORINATED PYRIDAZIN-3-ONES FOR THE USE THEREOF IN THE TREATMENT OF LUNG DISEASES” (UNIVERSITE DE REIMS CHAMPAGNE-ARDENNE, priority 2014, published 2017).
# How the values were obtained:
# Type in all cases: biochemical
# [1] = tested on: PDE1; test: PDE1 enzyme inhibition, same colorimetric test; details: at a concentration of 50 μM of compound
# Method: (§1) In order to evaluate the action of the compounds (Ic), (Ig) and (Ii) according to the invention, the activity of different sub-types of phosphodiesterases, either of type 4 or not, was tested in vitro by using a kit adapted to the recombinant isoforms of human phosphodiesterases PDE4B2 and PDE4D coded by Escherichia coli. The activity of the PDE1 and PDE10 enzymes was also monitored.
# (§2) The principle of the test is based on the cleavage of AMPc by the enzymes phosphodiesterases. The nucleotide-5′ which is sorted out during the reaction is itself cleaved by an enzyme 5′-nucleotidase into a nucleoside and a phosphate, the latter being quantified by using the reagent Biomol Green™.
# (§3) The PDE enzymes are incubated on microplates in the presence of AMPc, 5′-nucleotidase, in the presence of an inhibitor, more particularly corresponding to the compound (Ic), (Ig) or (Ii) according to the invention, or in the absence of any inhibitor (control), and this for a period of the order of 60 mins.
# (§4) The reaction is stopped by adding an amount of 100 microliters of the reagent Biomol Green™ and the plate is incubated for further 30 mins in order to allow development of the colour before reading the absorbance by means of a micro-plate reader.
# The study of the inhibition of the PDE enzymes by the compound (Ic), (Ig) or (Ii) according to the invention was carried out by testing […] different concentrations (500 μM, 50 μM, 5 μM and 0.5 μM) of said compounds (Ic), (Ig) or (Ii).
# [2] = tested on: PDE4 (recombinant human phosphodiesterases PDE4B2 and PDE4D); test: PDE4 enzyme inhibition, colorimetric cAMP cleavage test (5'-nucleotidase, Biomol Green); details: for IC50: average of three independent determinations, non-linear regression, 60 min incubation, 2% DMSO, read-out: CI50 (inhibitory concentration 50)
# Method: The activity of the PDE1 and PDE10 enzymes was also monitored.
# as §2, §4
# The CI50s which were calculated represent the average value of three determinations which were achieved independently of each other.
# A non-specific inhibitor of the PDE enzymes, 3-isobutyl-1-methylxanthin (IBMX) corresponds to the control.
# [3] = target: PDE10 (Homo sapiens, UniProt Q9Y233); test: PDE10 enzyme inhibition, same colorimetric test; details: read-out: percentage of inhibition towards PDE10
# Method: as §1, §2, §3
# The reaction is stopped by adding an amount of 100 microliters of the reagent Biomol Green™ and the plate is incubated for further 30 mins in order to allow development of the colour before reading the absorbance by means of a micro-plate reader. […]
# [4] = at a concentration of 50 μM of compound
# PDE10, sequence (Q9Y233 whole entry): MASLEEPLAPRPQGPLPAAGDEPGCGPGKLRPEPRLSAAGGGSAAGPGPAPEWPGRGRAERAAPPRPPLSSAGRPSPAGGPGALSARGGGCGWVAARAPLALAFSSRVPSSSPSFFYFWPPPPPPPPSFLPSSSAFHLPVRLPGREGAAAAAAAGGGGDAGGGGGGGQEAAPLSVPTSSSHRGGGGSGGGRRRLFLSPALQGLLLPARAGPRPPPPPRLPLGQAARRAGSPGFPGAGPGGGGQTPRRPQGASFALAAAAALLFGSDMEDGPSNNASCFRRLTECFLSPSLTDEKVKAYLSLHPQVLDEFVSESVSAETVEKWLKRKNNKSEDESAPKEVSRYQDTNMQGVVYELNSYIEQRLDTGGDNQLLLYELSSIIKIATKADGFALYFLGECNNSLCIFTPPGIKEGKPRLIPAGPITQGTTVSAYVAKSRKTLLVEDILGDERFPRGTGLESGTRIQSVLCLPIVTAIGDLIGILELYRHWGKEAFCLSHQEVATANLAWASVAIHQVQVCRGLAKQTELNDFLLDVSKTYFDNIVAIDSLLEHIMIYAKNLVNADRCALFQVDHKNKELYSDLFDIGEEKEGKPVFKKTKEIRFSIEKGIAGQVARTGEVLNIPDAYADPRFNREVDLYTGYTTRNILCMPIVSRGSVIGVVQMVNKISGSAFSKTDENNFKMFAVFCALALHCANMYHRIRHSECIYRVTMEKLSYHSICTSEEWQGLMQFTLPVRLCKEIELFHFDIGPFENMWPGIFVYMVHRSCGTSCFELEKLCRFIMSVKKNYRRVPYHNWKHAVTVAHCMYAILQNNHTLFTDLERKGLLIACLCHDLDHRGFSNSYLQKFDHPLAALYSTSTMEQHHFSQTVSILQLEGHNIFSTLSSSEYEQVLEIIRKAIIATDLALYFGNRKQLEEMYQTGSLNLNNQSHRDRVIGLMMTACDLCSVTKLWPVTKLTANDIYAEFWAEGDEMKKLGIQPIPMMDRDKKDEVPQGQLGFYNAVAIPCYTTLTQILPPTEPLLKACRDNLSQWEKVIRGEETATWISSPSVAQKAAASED
inhibition of PDE1 [1] [%],"inhibition percentage of PDE4 [2, 4] [%]",IC50 [2] [µM],inhibition percentage of PDE4 ([2]; at a 5 μM concentration of compound) [%],inhibition at 50 µM [3] [%],SMILES
0,74,8.1,–,–,"COc1ccc(-c2cc(C(F)(F)F)c(=O)[nH]n2)cc1OC [compound (Ic), 4-(trifluoromethyl)-6-(3′,4′-dimethoxyphenyl)pyridazin-3(2H)-one]"
0,45,15,–,–,"Cc1ccc(-c2cc(C(F)(F)F)c(=O)n(-c3ccccc3)n2)cc1 [compound (Ig), 4-(trifluoromethyl)-2-phenyl-6-(p-tolyl)pyridazin-3(2H)-one]"
0,–,0.25,56,9,"COc1cc(-c2cc(C(F)(F)F)c(=O)[nH]n2)ccc1OC(F)F [compound (Ii), 6-(4′-(difluoromethoxy)-3′-methoxy-phenyl)-4-(trifluoromethyl)pyridazin-3(2H)-one]"
